{"source": "patent US11932652B2", "about": "“Pyrrolidinyl urea derivatives and application thereof in TrkA-related diseases” (ZHANGZHOU PIEN TZE HUANG PHARMACEUTICAL CO., LTD., priority 2018, dated 2024)", "key": {"[1]": {"assay": "Metabolic stability (MMS) by human liver microsome", "type": "in vitro ADME", "conditions": "liver microsomes, pH 7.4, 0.5 mg protein/mL, read-out: Intrinsic clearance by liver microsome, Human", "procedure": "(§1) Determination of the metabolic stability of the test compound by human, rat and canine liver microsome.\n(§2) Test compound (10 mM), testosterone (reference compound, 10 mM), diclofenac (reference compound, 10 mM), propafenone (reference compound, 10 mM).\n(§3) 100 mM potassium phosphate buffer (pH 7.4).\n(§4) Intermediate solution: 45 μL of DMSO was used (with 450 μL of 1:1 methanol/water) to dilute 5 μL of the test or reference compound.\n(§5) Working solution: 450 μL of 100 mM potassium phosphate buffer was used to dilute the intermediate solution.\n(§6) 1. β-Nicotinamide adenine dinucleotide phosphate, from Sigma, Cat. No. N0505.\n(§7) 3. Isocitrate dehydrogenase, from Sigma, Cat. No. 12002.\n(§8) Preparation of liver microsome solution (final concentration: 0.5 mg protein/mL)\n(§9) Cold acetonitrile containing 100 ng/mL tolbutamide and 100 ng/mL labetalol was used as the internal standard.\n(§10) 10 μL of the working solution of the test compound or reference compound was added to all plates (T0, T5, T10, T20, T30, T60, NCF60).\n(§11) 680 μL of liver microsome solution was added to each well of 96-well plates, then 80 μL was added to each well of the plates, and the plates were placed at 37° C. for pre-incubation for approximately 10 minutes. […]\n(§12) The half-life T/2 and the intrinsic clearance by liver microsome Clint(mic) were calculated by the following formulas: […]"}, "CYP2D6": {"molecular_target": "T1, CYP2D6 (Homo sapiens, UniProt P10635)", "T1 construct": "from tissue; host or cells: human liver microsomes", "T1 sequence (P10635 whole entry)": "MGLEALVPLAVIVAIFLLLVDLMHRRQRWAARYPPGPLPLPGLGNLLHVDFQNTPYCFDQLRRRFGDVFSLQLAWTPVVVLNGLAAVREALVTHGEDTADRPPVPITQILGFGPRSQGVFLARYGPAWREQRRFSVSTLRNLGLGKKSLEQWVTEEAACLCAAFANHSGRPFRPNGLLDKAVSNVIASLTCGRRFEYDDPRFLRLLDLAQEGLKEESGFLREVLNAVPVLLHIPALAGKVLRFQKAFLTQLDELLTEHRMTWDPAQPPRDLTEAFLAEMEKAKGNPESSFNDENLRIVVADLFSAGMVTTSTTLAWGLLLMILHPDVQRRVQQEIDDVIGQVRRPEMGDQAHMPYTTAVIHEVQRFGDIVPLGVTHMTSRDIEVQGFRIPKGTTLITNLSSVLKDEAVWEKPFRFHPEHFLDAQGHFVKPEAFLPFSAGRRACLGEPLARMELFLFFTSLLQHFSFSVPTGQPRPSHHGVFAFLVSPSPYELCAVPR", "assay": "Cytochrome P450 isozyme inhibitory activity test, CYP2D6", "type": "in vitro ADME", "conditions": "human liver microsomes", "procedure": "(§13) Determination of the inhibitory activity of the test compound on different human cytochrome P450 isozymes.\n(§14) The test compound, standard inhibitor (100×final concentration), and a mixed substrate working solution were prepared; the microsome frozen in −80° C. refrigerator was thawed. […]"}, "CYP2C19": {"molecular_target": "T2, CYP2C19 (Homo sapiens, UniProt P33261)", "T2 construct": "from tissue; host or cells: human liver microsomes", "T2 sequence (P33261 whole entry)": "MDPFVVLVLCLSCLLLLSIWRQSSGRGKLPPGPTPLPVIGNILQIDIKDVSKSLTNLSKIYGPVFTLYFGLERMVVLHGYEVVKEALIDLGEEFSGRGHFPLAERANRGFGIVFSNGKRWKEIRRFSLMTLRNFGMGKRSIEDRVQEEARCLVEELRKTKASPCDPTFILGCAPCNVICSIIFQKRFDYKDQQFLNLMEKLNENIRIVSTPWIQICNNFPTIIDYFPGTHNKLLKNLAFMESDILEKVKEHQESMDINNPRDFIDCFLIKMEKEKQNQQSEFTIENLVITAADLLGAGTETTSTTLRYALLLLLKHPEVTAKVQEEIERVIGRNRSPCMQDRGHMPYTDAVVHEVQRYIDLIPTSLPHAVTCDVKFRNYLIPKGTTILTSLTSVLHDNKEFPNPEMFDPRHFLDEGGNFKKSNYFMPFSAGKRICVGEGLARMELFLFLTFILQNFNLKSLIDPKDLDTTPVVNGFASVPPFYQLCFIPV", "assay": "Cytochrome P450 isozyme inhibitory activity test, CYP2C19", "type": "in vitro ADME", "conditions": "heading: Cytochrome P450 isozyme IC50, CYP2C19; human liver microsome", "procedure": "as §13\n(§15) The test compound, standard inhibitor (100×final concentration), and a mixed substrate working solution were prepared; the microsome frozen in −80° C. refrigerator was thawed. 2 μL of the test compound and standard inhibitor solution was added to the corresponding wells, and at the same time 2 μL of the corresponding solvent was added to the non-inhibitor control wells (NIC) and blank control wells (Blank) wells; then 20 μL of mixed substrate solution was added to the corresponding wells, except for the Blank wells (20 μL of PB was added to the Blank wells); a human liver microsome solution was prepared (put back into the refrigerator immediately after using and marking the date), and then 158 μL of the human liver microsome solution was added to all wells; the above sample plate was placed in a 37° C. water bath for pre-incubation, then the coenzyme factor (NADPH) solution was prepared; 10 minutes later, 20 μL of the NADPH solution was added to all wells, and the sample plate was shaken well, placed in a 37° C. water bath and incubated for 10 minutes; at the corresponding time point, 400 μL of cold acetonitrile solution (internal standard: 200 ng/mL tolbutamide and labetalol) was added to terminate the reaction; the sample plate was evenly mixed, centrifuged at 4000 rpm for 20 minutes to precipitate proteins; 200 μL of the supernatant was added to 100 μL of water, shook well, and tested by LC/MS/MS."}, "[2]": {"assay": "Metabolic stability (MMS) by rat liver microsome", "type": "in vitro ADME", "conditions": "liver microsomes, pH 7.4, 0.5 mg protein/mL, read-out: Intrinsic clearance by liver microsome, Rat", "procedure": "as §1, §2, §3, §4, §5, §6, §7, §8, §9, §10, §11, §12"}, "plasma protein [3]": {"system": "plasma protein", "assay": "Plasma protein binding rate (PPB) test, SD rat plasma", "type": "in vitro ADME", "conditions": "2 μM, dialysis 37° C. 4 hours", "procedure": "(§16) The protein binding rates of the test compound in the plasma of humans, SD rats and Beagle dogs were determined.\n(§17) 796 μL of blank plasma from humans, SD rats and Beagle dogs (plasma purchased from BioreclamationIVT) were taken, 4 μL of working solution of the test compound (400 μM) or warfarin working solution (400 μM) was added and the final concentration of the test compound or warfarin was 2 μM. The sample was mixed thoroughly. The final concentration of organic phase DMSO was 0.5%; 50 μL of the plasma sample treated with the test compound or warfarin was pipetted into the sample receiving plate, and a corresponding volume of blank plasma or buffer was added immediately so that the final volume in each sample well was 100 μL, the volume ratio of plasma:dialysis buffer was 1:1; 400 μL of stop solution was added to these samples, and these samples were used as T0 samples for recovery and stability determination. To samples were stored at 2° C. to 8° C. for subsequent processing together with other dialyzed samples; 150 μL of the plasma sample treated with the test compound or warfarin was added into the dosing end of each dialysis hole, and 150 μL of blank dialysis buffer was added to the receiving end corresponding to the dialysis hole. Then the dialysis plate was sealed with gas-permeable membrane and placed in a humidified 5% CO2 incubator, and incubated at 37° C. with 100 rpm shaking for 4 hours. After the dialysis, 50 μL of the dialysis buffer sample and the dialysis plasma sample was transferred to a new sample receiving plate. […] All samples were analyzed by LC/MS/MS after protein precipitation, and the plasma protein unbound rate, binding rate and recovery rate was calculated according to the following formula: % unbound rate=100*free compound concentration at the membrane buffer side/total compound concentration at the membrane plasma side, % protein binding rate=100-% unbound rate, % recovery rate=100*(free compound concentration at the membrane buffer side+total compound concentration at the membrane plasma side)/total compound concentration before dialysis."}, "CYP2C9": {"molecular_target": "T3, CYP2C9 (Homo sapiens, UniProt P11712)", "T3 construct": "from tissue; host or cells: human liver microsomes", "T3 sequence (P11712 whole entry)": "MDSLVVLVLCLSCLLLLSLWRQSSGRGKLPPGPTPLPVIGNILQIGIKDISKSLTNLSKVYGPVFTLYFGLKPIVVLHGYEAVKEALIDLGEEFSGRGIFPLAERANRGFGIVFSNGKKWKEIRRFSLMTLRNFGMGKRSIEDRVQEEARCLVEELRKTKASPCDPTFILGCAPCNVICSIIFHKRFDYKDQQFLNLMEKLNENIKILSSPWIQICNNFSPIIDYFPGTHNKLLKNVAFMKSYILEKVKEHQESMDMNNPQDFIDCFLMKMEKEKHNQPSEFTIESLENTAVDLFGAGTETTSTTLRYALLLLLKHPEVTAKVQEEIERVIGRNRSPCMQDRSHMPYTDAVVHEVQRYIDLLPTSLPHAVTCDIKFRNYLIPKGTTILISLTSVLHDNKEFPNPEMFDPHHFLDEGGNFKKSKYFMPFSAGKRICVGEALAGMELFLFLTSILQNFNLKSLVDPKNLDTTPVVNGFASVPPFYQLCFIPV", "assay": "Cytochrome P450 isozyme inhibitory activity test, CYP2C9", "type": "in vitro ADME", "procedure": "as §13, §14"}, "CYP3A4": {"molecular_target": "T4, CYP3A4 (Homo sapiens, UniProt P08684)", "T4 construct": "from tissue; host or cells: human liver microsomes", "T4 sequence (P08684 whole entry)": "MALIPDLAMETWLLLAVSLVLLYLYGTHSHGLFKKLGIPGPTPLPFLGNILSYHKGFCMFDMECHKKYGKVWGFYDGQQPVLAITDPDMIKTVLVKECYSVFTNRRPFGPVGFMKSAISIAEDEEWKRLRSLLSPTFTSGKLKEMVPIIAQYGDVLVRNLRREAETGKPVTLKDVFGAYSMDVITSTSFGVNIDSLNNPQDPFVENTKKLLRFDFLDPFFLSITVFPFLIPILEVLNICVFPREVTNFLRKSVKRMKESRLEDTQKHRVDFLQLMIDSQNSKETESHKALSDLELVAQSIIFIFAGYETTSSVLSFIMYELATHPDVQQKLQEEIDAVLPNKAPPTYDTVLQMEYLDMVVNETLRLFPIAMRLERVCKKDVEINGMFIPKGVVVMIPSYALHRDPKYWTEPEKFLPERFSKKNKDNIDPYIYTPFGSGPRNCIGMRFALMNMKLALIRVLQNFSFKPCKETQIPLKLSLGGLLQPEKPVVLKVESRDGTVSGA", "assay": "Cytochrome P450 isozyme inhibitory activity test, CYP3A4", "type": "in vitro ADME", "conditions": "human, human liver microsomes", "procedure": "as §13, §15"}, "plasma protein [4]": {"system": "plasma protein", "assay": "Plasma protein binding rate (PPB) test, human plasma", "type": "in vitro ADME", "conditions": "2 μM, dialysis 37° C. 4 hours", "procedure": "as §16, §17"}, "TrkA": {"molecular_target": "T5, TrkA (Homo sapiens, UniProt P04629)", "T5 construct": "purchased Invitrogen PV4114", "T5 sequence (P04629 33-796)": "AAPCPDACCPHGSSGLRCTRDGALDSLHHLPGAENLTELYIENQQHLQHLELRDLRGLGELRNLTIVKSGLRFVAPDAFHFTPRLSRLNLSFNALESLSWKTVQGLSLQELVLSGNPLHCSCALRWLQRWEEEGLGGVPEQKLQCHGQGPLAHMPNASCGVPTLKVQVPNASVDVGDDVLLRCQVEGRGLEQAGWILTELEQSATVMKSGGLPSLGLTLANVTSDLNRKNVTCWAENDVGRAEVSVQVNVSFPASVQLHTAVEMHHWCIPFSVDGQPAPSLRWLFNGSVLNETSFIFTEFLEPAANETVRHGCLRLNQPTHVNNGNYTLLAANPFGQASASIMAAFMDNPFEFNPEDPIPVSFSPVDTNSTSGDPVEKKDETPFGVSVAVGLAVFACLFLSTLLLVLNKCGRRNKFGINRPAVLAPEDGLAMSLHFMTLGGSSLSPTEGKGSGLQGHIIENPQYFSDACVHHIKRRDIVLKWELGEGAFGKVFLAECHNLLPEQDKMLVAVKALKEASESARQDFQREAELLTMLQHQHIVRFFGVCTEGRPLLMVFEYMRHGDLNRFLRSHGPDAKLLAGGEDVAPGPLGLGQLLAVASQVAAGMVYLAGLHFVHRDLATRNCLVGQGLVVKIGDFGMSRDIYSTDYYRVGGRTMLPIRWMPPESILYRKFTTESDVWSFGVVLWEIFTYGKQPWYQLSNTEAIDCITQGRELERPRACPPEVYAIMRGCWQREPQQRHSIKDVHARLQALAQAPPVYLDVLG", "assay": "TrkA enzyme activity test (HTRF)", "type": "biochemical", "conditions": "0.5 nM TrkA kinase, 90 μM ATP, 23° C., 90 minutes", "procedure": "50 mM Hepes (pH 7.5), 5 mM MgCl2 (magnesium chloride), 0.01 mM orthovanadate (sodium vanadate), 1% BSA (bovine serum albumin), 1 mM (dithiothreitol)\nThis experiment used Cisbio's homogeneous time-resolved fluorescence resonance energy transfer (HTRF® method) for activity test. In the test plate, the enzyme, biotin-labeled peptide substrate, ATP, and test compound were mixed, and incubated for reaction. After the reaction, ethylenediaminetetraacetic acid was added to terminate the reaction; at the same time, Eu-labeled antibody and streptavidin-labeled XL665 were added for reaction and detection. The data were expressed by the readings of the fluorescence signal at 665 nm and 620 nm, where a high ratio of 665 nm/620 nm indicated higher activity, and a low ratio of 665 nm/620 nm indicated inhibition of activity.\n1. Dilution of compound: the test compound was 3-fold diluted to prepare a total of 11 concentrations, the concentration was from 10 μM to 0.17 nM in the final system;\n2. A 10 μL reaction system with a buffer of 50 mM Hepes (pH 7.5), 5 mM MgCl2, 0.01 mM sodium vanadate, 1% BSA, and 1 mM DTT, and containing 0.5 nM TrkA kinase, 0.3 μM biotin-TK peptide (biotin-labeled tyrosine kinase substrate peptide), 90 μM ATP was incubated at 23° C. for 90 minutes. 10 μL of stop solution containing 20 mM EDTA, 1.34 nM phosphorylated substrate antibody, and 100 nM streptavidin-labeled fluorescent molecule XL-665 was then added, incubated at 23° C. for 60 minutes; the signal was read with Envision;\n3. The inhibition rate of the compound was calculated from the data read by the instrument, and the IC50 value was calculated using the mode 205 in XLFIT5 of IDBS."}}, "data": [{"smiles": "COCCN1C[C@@H](NC(=O)Nc2c(C)c(-c3cnc(C)nc3)nn2-c2ccccc2)[C@H](c2cccc(F)c2)C1", "note": "[Reference compound D1, reference compound]", "values": [{"measurement": "CLint scaled", "setting": "[1]", "value": 52.1, "unit": "mL/min/kg"}, {"measurement": "IC50 at 10 min", "setting": "CYP2D6", "value": 39.7, "unit": "µM"}, {"measurement": "IC50", "setting": "CYP2C19", "value": "> 50", "unit": "µM"}, {"measurement": "CLint scaled", "setting": "[2]", "value": 52.9, "unit": "mL/min/kg"}, {"measurement": "Plasma protein unbound rate, SD Rat plasma", "setting": "plasma protein [3]", "value": 9.6, "unit": "%"}, {"measurement": "IC50", "setting": "CYP2C9; heading: Cytochrome P450 isozyme IC50, CYP2C9, human liver microsome", "value": "> 50", "unit": "µM"}, {"measurement": "IC50 at 10 min", "setting": "CYP3A4", "value": 37.1, "unit": "µM"}, {"measurement": "Plasma protein unbound rate, Human plasma", "setting": "plasma protein [4]", "value": 13.6, "unit": "%"}]}, {"smiles": "COCCN1C[C@@H](n2ccc(F)c2)[C@H](NC(=O)Nc2c(C)c(-c3cnc4c(c3)COC4)nn2-c2ccccc2)C1", "note": "[Compound 5]", "values": [{"measurement": "IC50", "setting": "TrkA", "value": 0.00024, "unit": "µM"}]}, {"smiles": "COCCN1C[C@@H](n2ccc(F)c2)[C@H](NC(=O)Nc2c(C)c(-c3cnc(C4(F)CNC4)nc3)nn2-c2ccccc2)C1", "note": "[Compound 8]", "values": [{"measurement": "IC50", "setting": "TrkA", "value": 0.00103, "unit": "µM"}]}, {"smiles": "COCCN1C[C@@H](n2cc(F)c(F)c2)[C@H](NC(=O)Nc2c(C)c(-c3cnc(C4(F)COC4)nc3)nn2-c2ccccc2)C1", "note": "[Compound 6]", "values": [{"measurement": "IC50", "setting": "TrkA", "value": 0.00027, "unit": "µM"}]}, {"smiles": "COCCN1C[C@@H](n2cc(F)c(F)c2)[C@H](NC(=O)Nc2c(C)c(-c3cnc4c(c3)COC4)nn2-c2ccccc2)C1", "note": "[Compound 1]", "values": [{"measurement": "IC50", "setting": "TrkA", "value": 0.00016, "unit": "µM"}, {"measurement": "IC50 at 10 min", "setting": "CYP2D6", "value": 28.5, "unit": "µM"}, {"measurement": "IC50", "setting": "CYP2C19", "value": "> 50", "unit": "µM"}, {"measurement": "IC50 at 10 min", "setting": "CYP2C9; human, human liver microsomes", "value": 24.2, "unit": "µM"}, {"measurement": "IC50 at 10 min", "setting": "CYP3A4", "value": 19.2, "unit": "µM"}]}, {"smiles": "COCCN1C[C@@H](n2cc(F)c(F)c2)[C@H](NC(=O)Nc2c(C)c(-c3cnc4c(c3)CN(C)C4)nn2-c2ccccc2)C1", "note": "[Compound 2]", "values": [{"measurement": "IC50", "setting": "TrkA", "value": 0.00027, "unit": "µM"}, {"measurement": "CLint scaled", "setting": "[1]", "value": 54.6, "unit": "mL/min/kg"}, {"measurement": "CLint scaled", "setting": "[2]", "value": 25.5, "unit": "mL/min/kg"}, {"measurement": "Plasma protein unbound rate, SD Rat plasma", "setting": "plasma protein [3]", "value": 5.1, "unit": "%"}, {"measurement": "Plasma protein unbound rate, Human plasma", "setting": "plasma protein [4]", "value": 15.3, "unit": "%"}]}, {"smiles": "COCCN1C[C@@H](n2ccc(F)c2)[C@H](NC(=O)Nc2c(C)c(-c3cc4n(n3)CCC4)nn2-c2ccccc2)C1", "note": "[Compound 4]", "values": [{"measurement": "IC50", "setting": "TrkA", "value": 0.00305, "unit": "µM"}]}]}
